Measurements: patent publication US20080132458A1, “Hypoxia-Activated Anti-Cancer Agents” (Threshold Pharmaceuticals, Inc., priority 2004, published 2008)

The compounds below were run on CD1 Mice (assay: toxicity in healthy mice: weight loss after a single intravenous dose, observed for seven days). Settings: single 20 mg/kg dose intravenously.
Assay type: in vivo, mouse
Experimental: CD1 Mice were injected intravenously with a single 20 mg/kg dose each of compounds 2a, 2b, daunorubicin, and vehicle and observed for seven days, before euthanization. […] Thus, compounds of the invention appear to be less toxic than Daunorubicin when administered to healthy mice.

Row | Compound | weight loss as compared with the control group
1 | COc1cccc2c1C(=O)c1c(O)c3c(c(O)c1C2=O)C[C@@](O)(C(C)=O)C[C@@H]3O[C@H]1CC2[C@H](OCOCN2C(=O)OCc2cnc([N+](=O)[O-])n2C)[C@H](C)O1 (stereo partly drawn) [Compound 2a] | did not undergo significant weight loss
2 | COc1cccc2c1C(=O)c1c(O)c3c(c(O)c1C2=O)C[C@@](O)(C(C)=O)C[C@@H]3O[C@H]1CC2[C@H](OCOCN2C(=O)OCc2ncc([N+](=O)[O-])n2C)[C@H](C)O1 (stereo partly drawn) [Compound 2b] | did not undergo significant weight loss
3 | COc1cccc2c1C(=O)c1c(O)c3c(c(O)c1C2=O)C[C@@](O)(C(C)=O)C[C@@H]3O[C@H]1C[C@H](N)[C@H](O)[C@H](C)O1 [Daunorubicin, reference compound] | Significant weight loss
